Measurements: the NIST ThermoML archive (doi:10.1021/je100369a)

Test: mn = molality of the nth substance listed, in mol/kg
Conditions: 101 kPa, Liquid

Oc1ccccc1C=NCCN=Cc1ccccc1O [2,2'-[ethylenebis(nitrilomethylidyne)]diphenol] + CC(=O)N(C)C
mass density [kg/m3]
Conditions | m1 = 0.0298 | m1 = 0.0503 | m1 = 0.0704 | m1 = 0.0902 | m1 = 0.11 | m1 = 0.13 | m1 = 0.151 | m1 = 0.1699 | m1 = 0.1898
288.15 K | 946.92 | 947.9 | 948.86 | 949.8 | 950.76 | 951.71 | 952.73 | 953.61 | 954.55
298.15 K | 937.72 | 938.72 | 939.69 | 940.66 | 941.6 | 942.56 | 943.57 | 944.49 | 945.43
308.15 K | 928.51 | 929.52 | 930.5 | 931.48 | 932.43 | 933.41 | 934.41 | 935.35 | 936.28
318.15 K | 919.27 | 920.29 | 921.29 | 922.28 | 923.25 | 924.23 | 925.25 | 926.19 | 927.14

Oc1ccccc1C=NCCN=Cc1ccccc1O [2,2'-[ethylenebis(nitrilomethylidyne)]diphenol] + CN(C)C=O
mass density [kg/m3]
Conditions | m1 = 0.0302 | m1 = 0.049 | m1 = 0.0701 | m1 = 0.0913 | m1 = 0.1101 | m1 = 0.1238 | m1 = 0.1483 | m1 = 0.1702 | m1 = 0.1886
288.15 K | 954.99 | 955.87 | 956.86 | 957.85 | 958.72 | 959.36 | 960.5 | 961.48 | 962.35
298.15 K | 945.49 | 946.39 | 947.39 | 948.39 | 949.27 | 949.91 | 951.05 | 952.08 | 952.94
308.15 K | 935.97 | 936.88 | 937.89 | 938.9 | 939.79 | 940.44 | 941.6 | 942.63 | 943.48
318.15 K | 926.38 | 927.29 | 928.32 | 929.35 | 930.25 | 930.91 | 932.08 | 933.14 | 933.99

Oc1ccccc1C=NCCN=Cc1ccccc1O [2,2'-[ethylenebis(nitrilomethylidyne)]diphenol] + C[S+](C)[O-]
mass density [kg/m3]
Conditions | m1 = 0.0098 | m1 = 0.03 | m1 = 0.0502 | m1 = 0.0697 | m1 = 0.0903 | m1 = 0.1097 | m1 = 0.13 | m1 = 0.1502 | m1 = 0.1701 | m1 = 0.1893
288.15 K | 1105.42 | 1105.67 | 1105.93 | 1106.18 | 1106.45 | 1106.71 | 1106.99 | 1107.28 | 1107.55 | 1107.81
298.15 K | 1095.42 | 1095.69 | 1095.96 | 1096.23 | 1096.52 | 1096.79 | 1097.08 | 1097.39 | 1097.66 | 1097.91
308.15 K | 1085.39 | 1085.68 | 1085.97 | 1086.26 | 1086.56 | 1086.85 | 1087.14 | 1087.45 | 1087.75 | 1088.03
318.15 K | 1075.36 | 1075.67 | 1075.98 | 1076.28 | 1076.6 | 1076.9 | 1077.22 | 1077.56 | 1077.84 | 1078.13
